According to patent publication US10537611B2, “Methods of treating lung cancer” (Five Prime Therapeutics, Inc., priority 2011, dated 2020):

Key:
NCI-H226 cells = assay: CellTiter-Glo cell number, NCI-H226; format: cell-based, human; details: NCI-H226, no FGFR1 amplification, FGFR1 overexpression
Protocol: To determine the impact of FGFR1-ECD.339-Fc on lung cancer cell lines in tissue culture, cells were plated in a Microtest™ 96-well tissue culture plate (Becton Dickenson, Franklin Lakes, N.J.) at a density of 5×10^3 cells/well in medium containing 10%, 1% or 0.1% FBS in the presence or absence of 15 μg/ml FGFR1-ECD.339-Fc (SEQ ID NO: 6) or an unrelated ECD-Fc fusion protein (as a negative control). Plates were incubated at 37° C. at 5% CO2 for 4 days and then assayed to determine the impact of FGFR1-ECD.339-Fc on cell number and proliferation.
(§1) To determine cell number the CellTiter-Glo® Luminescent Cell Viability Assay (Promega, Madison, Wis.) was employed. CellTiter-Glo® is a homogeneous method of determining the number of viable cells in culture based on quantitation of the ATP present, an indicator of metabolically active cells. […] Luminescence was then determined on an EnVision™ Multilabel Plate Reader (PerkinElmer, Boston, Mass.) with a 0.2 second integration time. Results were expressed as relative light units (RLU)/well.
NCI-H226 and NCI-H522 were also sensitive to FGFR1-ECD.339-Fc in vitro, having decreased cell proliferation and number using the tritiated thymidine ([3H]-TdR) incorporation assay and CellTiter-Glo® Luminescent Cell Viability Assay (Promega, Madison, Wis.), respectively. […] P-values were determined using an unpaired t-test. […]

NCI-H358 xenograft model = assay: NCI-H358 xenograft tumor growth inhibition; format: in vivo, mouse; details: Lung NCI-H358; IP 15 mg/kg BIW; non-amplified; P ns
Source text: The impact of FGFR1-ECD.339-Fc on tumor growth was compared between FGFR1 gene amplified and non-amplified lung cancer xenograft models. Lung cell lines without FGFR1-amplification examined in this experiment were as follows: A549, NCI-H460, NCI-H226, NCI-H2126, NCI-H441, NCI-H358, NCI-H522 and Colo699. Non-amplified cell lines were purchased from ATTC (Manassas, Va.) and cultured according to supplier instructions. Lung cancer xenograft models using non-FGFR1 gene amplified cell lines were carried out substantially as described in Example 2.
(§2) Percentage tumor growth inhibition by FGFR1-ECD.339-Fc was determined by area-under-the-curve (AUC) analysis of xenograft growth curves treated with FGFR1-ECD.339-Fc compared to albumin control. […] The difference in FGFR1-ECD.339-Fc-mediated xenograft inhibition between FGFR1 gene amplified and non-amplified lung cancer xenograft models was statistically significant (P=0.0333).

DMS114 cells = assay: CellTiter-Glo cell number, DMS114; format: cell-based, human; details: 15 μg/ml, 4 days, 10%, 1% or 0.1% FBS
Source text: A panel of lung cancer cell lines displaying potential amplification of the FGFR1 gene was identified using CONAN (http://www.sanger.ac.uk/cgi-bin/genetics/CGP/conan/search.cgi) and Tumorscape (http://www.broadinstitute.org/tumorscape/pages/portalHomejsf). CONAN and Tumorscape represent public data mining tools to extract gene copy number information for predefined or user defined loci across the SNP6.0 dataset of cancer. Lung cancer cell lines DMS53, DMS114, NCI-H1581 and NCI-H520 were identified as having potential amplification of the FGFR1 gene (>4 copies/cell) and were selected for further analysis. Human small cell lung cancer (SCLC) cell lines DMS53 and DMS114 were purchased from ATCC (Manassas, Va.; Cat. No. CRL-2062; Cat. No. CRL-2066, respectfully). The cells were cultured in Waymouth's MB 752/1 medium+10% FBS+2 mM L-glutamine at 37° C. in a humidified atmosphere with 5% CO2. […]
as §1

HCT116 xenograft model = assay: HCT116 xenograft tumor growth inhibition; format: in vivo, mouse; details: Colon HCT116; IP 15 mg/kg BIW; FGFR1 non-amplified; P ns
Protocol: as §2
Also shown in Table 5 are the dosing schedule for FGFR1-ECD.339-Fc in a mouse xenograft model, the percent tumor growth inhibition (TGI (%)) and the statistical significance of the tumor growth inhibition (P Value), as well as whether the FGFR1 gene is amplified in the cell line.
(§3) An exemplary xenograft experiment is as follows. For Caki-1 and MSTO-211H, five million cells were implanted subcutaneously over the right flank of SCID mice (N=10 per group). […] Representative tumor growth curves are shown for a renal cancer, Caki-1, (A), and mesothelioma, MSTO-211H, (B) xenograft cancer model. […] In the MSTO-211H mesothelioma model, FGFR1-ECD.339-Fc administration reduced tumor growth (FIG. 16b) by 64% (P<0.0001).

Caki-1 xenograft model = assay: Caki-1 renal cell carcinoma xenograft tumor growth inhibition; format: in vivo, mouse; details: Renal Caki-1, IV 10 mg/kg BIW, 6 weeks, non-amplified, P < 0.001
Source text: as §3

[1] = test system: NCI-H1703 xenograft model; assay: NCI-H1703 NSCLC xenograft tumor growth inhibition; format: in vivo, mouse; details: Lung NCI-H1703, IP 15 mg/kg BIW, FGFR1 amplified, P < 0.05
Protocol: Efficacy of FGFR1-ECD.339-Fc treatment in one additional xenograft model, using non-small cell lung cancer (NSCLC) cell line NCI-H1703, was tested in a similar manner as the SCLC and NSCLC cell lines described above. […] It is noted that NCI-H1703 cell line contains a drug-sensitive PDGFRA/PDGFC genomic amplification in addition to FGFR1 amplification, which may be responsible for the modest efficacy observed.

FGFR1-ECD.339-Fc: human FGFR1 extracellular domain ending at amino acid 339 fused to an Fc; SEQ ID NO: 6 (mature form), SEQ ID NO: 5 with signal peptide
cell number (CellTiter-Glo) (NCI-H226 cells): reduced
TGI (%) (NCI-H358 xenograft model): 0%
cell number (CellTiter-Glo) (DMS114 cells): reduced
TGI (%) (HCT116 xenograft model): 0%
TGI (%) (Caki-1 xenograft model): 81%
TGI (%) [1]: 31%
